Experimental data taken from PubChem BioAssay AID256 (DTP/NCI, 2004).
“And” between values parts separate entries of the source, which are not always exact repeats. Equal values may be shown once. Inconclusive results and toxic doses are left out. How the source made its calls: active means survival T/C of 150% or more; inactive means T/C below 125% in these data.

Test system: CD2F1 mice, L1210 leukemia ip, survival T/C
Assay: NCI In Vivo Anticancer Drug Screen. Data for tumor model L1210 Leukemia (intraperitoneal) in CD2F1 (CDF1) mice
Conditions: higher = longer survival
Summary of the method: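 Transplantable tumor in mice; compound-treated vs vehicle-treated groups. Read-out = treated/control ratio of the measured endpoint.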

[1] = endpoint: mean survival time, dose: 100.0 mg/kg/injection, schedule: Q01DX009 (ip), vehicle: saline with Tween-80
[2] = endpoint: mean survival time, dose: 200.0 mg/kg/injection, schedule: Q01DX009 (ip), vehicle: saline with Tween-80
[3] = endpoint: mean survival time, dose: 400.0 mg/kg/injection, schedule: Q01DX009 (ip), vehicle: saline with Tween-80
[4] = endpoint: mean survival time, dose: 50.0 mg/kg/injection, schedule: Q01DX009 (ip), vehicle: saline
[5] = endpoint: mean survival time, dose: 100.0 mg/kg/injection, schedule: Q01DX009 (ip), vehicle: saline
[6] = endpoint: mean survival time, dose: 200.0 mg/kg/injection, schedule: Q01DX009 (ip), vehicle: saline
[7] = endpoint: mean survival time, dose: 25.0 mg/kg/injection, schedule: Q01DX009 (ip), vehicle: saline with Tween-80
[8] = endpoint: mean survival time, dose: 50.0 mg/kg/injection, schedule: Q01DX009 (ip), vehicle: saline with Tween-80
[9] = endpoint: mean survival time, dose: 100.0 mg/kg/injection, schedule: Q04DX003 (ip), vehicle: saline with Tween-80
[10] = endpoint: mean survival time, dose: 200.0 mg/kg/injection, schedule: Q04DX003 (ip), vehicle: saline with Tween-80
[11] = endpoint: mean survival time, dose: 400.0 mg/kg/injection, schedule: Q04DX003 (ip), vehicle: saline with Tween-80

Measured: T/C

CC(=O)NC(C)(NC(C)=O)C(=O)O
inactive: endpoint: mean survival time, dose: 50.0 mg/kg/injection, schedule: Q01DX009 (ip), vehicle: Klucel (hydroxypropylcellulose) (HPC) 95 % of control | endpoint: mean survival time, dose: 100.0 mg/kg/injection, schedule: Q01DX009 (ip), vehicle: Klucel (hydroxypropylcellulose) (HPC) 98 % of control | endpoint: mean survival time, dose: 200.0 mg/kg/injection, schedule: Q01DX009 (ip), vehicle: Klucel (hydroxypropylcellulose) (HPC) 95 % of control

CN(C)/C=N/NC(=O)C(O)c1ccccc1 (stereo unspecified)
inactive: [1] 102 % of control | [2] 102 % of control | [3] 100 % of control

CS(=O)(=O)OCCN(CCOS(C)(=O)=O)c1cccc(Cl)c1
inactive: endpoint: mean survival time, dose: 2.0 mg/kg/injection, schedule: Q01DX010 (ip), vehicle: saline 112 % of control | endpoint: mean survival time, dose: 4.0 mg/kg/injection, schedule: Q01DX010 (ip), vehicle: saline 112 % of control | endpoint: mean survival time, dose: 4.0 mg/kg/injection, schedule: Q01DX015 (ip), vehicle: saline 116 % of control | endpoint: mean survival time, dose: 8.0 mg/kg/injection, schedule: Q01DX015 (ip), vehicle: saline 119 % of control
active: endpoint: mean survival time, dose: 8.0 mg/kg/injection, schedule: Q01DX010 (ip), vehicle: saline 150 % of control

CC(C)(O)C(Cl)(Cl)Cl
inactive: [4] 97 % of control | [5] 95 % of control | [6] 107 % of control

NC(=O)N/N=C1\CC(S(=O)(=O)O)NC(=O)N1 (stereo unspecified)
inactive: endpoint: mean survival time, dose: 50.0 mg/kg/injection, schedule: Q04DX002 (ip), vehicle: saline with Tween-80 98 % of control | endpoint: mean survival time, dose: 100.0 mg/kg/injection, schedule: Q04DX002 (ip), vehicle: saline with Tween-80 95 % of control | endpoint: mean survival time, dose: 200.0 mg/kg/injection, schedule: Q04DX002 (ip), vehicle: saline with Tween-80 95 % of control

COC1CCC(/C=C(\C#N)C2CCC([N+](=O)[O-])CC2)CC1 (stereo unspecified)
inactive: [7] 86 % of control | [8] 88 % of control | [3] 94 % of control

CN(C)c1ccc(/C=C\C(=O)c2ccccc2)cc1
inactive: [4] 109 % of control | [5] 97 % of control | [6] 106 % of control

CCCCN(Cc1ccccc1)CC(O)C[NH-].O=C(O)CC(=O)O.[Pt+2] (stereo unspecified)
inactive: endpoint: median survival time, dose: 10.0 mg/kg/injection, schedule: Q04DX003 (ip), vehicle: water 98 % of control | endpoint: median survival time, dose: 20.0 mg/kg/injection, schedule: Q04DX003 (ip), vehicle: water 105 % of control | endpoint: median survival time, dose: 27.25 mg/kg/injection, schedule: Q04DX003 (ip), vehicle: water 101 % of control | endpoint: median survival time, dose: 40.0 mg/kg/injection, schedule: Q04DX003 (ip), vehicle: water 109 % of control | endpoint: median survival time, dose: 54.5 mg/kg/injection, schedule: Q04DX003 (ip), vehicle: water 101 % of control | endpoint: median survival time, dose: 80.0 mg/kg/injection, schedule: Q04DX003 (ip), vehicle: water 105 % of control | endpoint: median survival time, dose: 109.0 mg/kg/injection, schedule: Q04DX003 (ip), vehicle: water 108 % of control

O=[N+]([O-])c1ccc(Cn2cc[n+](Cc3ccc([N+](=O)[O-])cc3)c2)cc1
inactive: endpoint: mean survival time, dose: 12.5 mg/kg/injection, schedule: Q01DX009 (ip), vehicle: saline with Tween-80 98 % of control | endpoint: mean survival time, dose: 25.0 mg/kg/injection, schedule: Q01DX001 (ip), vehicle: saline with Tween-80 108 % of control | [7] 90 % of control | endpoint: mean survival time, dose: 50.0 mg/kg/injection, schedule: Q01DX001 (ip), vehicle: saline with Tween-80 104 % of control | [8] 93 % of control | endpoint: mean survival time, dose: 100.0 mg/kg/injection, schedule: Q01DX001 (ip), vehicle: saline with Tween-80 98 % of control

C=C(C)C1Cc2c(ccc3c2OC2COc4cc(OC)c(OC)cc4C2C3=O)O1 (stereo unspecified)
inactive: [1] 92 % of control | [9] 103 % of control | [2] 93 % of control | [10] 101 % of control | [3] 94 % of control | [11] 97 % of control

NC(=O)C(Br)Cc1cccc(Cl)c1 (stereo unspecified)
inactive: endpoint: mean survival time, dose: 50.0 mg/kg/injection, schedule: Q01DX001 (ip), vehicle: saline 102 % of control | endpoint: mean survival time, dose: 100.0 mg/kg/injection, schedule: Q01DX001 (ip), vehicle: saline 100 % of control | endpoint: mean survival time, dose: 200.0 mg/kg/injection, schedule: Q01DX001 (ip), vehicle: saline 100 % of control | endpoint: mean survival time, dose: 400.0 mg/kg/injection, schedule: Q01DX001 (ip), vehicle: saline 100 % of control

CO[C@@H]1[C@H](O)CC[C@]2(CO2)[C@H]1[C@@]1(C)O[C@@H]1CC=C(C)C
inactive: endpoint: median survival time, dose: 1.56 mg/kg/injection, schedule: Q01DX009 (ip), vehicle: saline with Tween-80 101 % of control and 103 % of control | endpoint: median survival time, dose: 3.12 mg/kg/injection, schedule: Q01DX009 (ip), vehicle: saline with Tween-80 93 % of control and 102 % of control | endpoint: median survival time, dose: 6.25 mg/kg/injection, schedule: Q01DX009 (ip), vehicle: saline with Tween-80 97 % of control and 105 % of control | endpoint: median survival time, dose: 12.5 mg/kg/injection, schedule: Q01DX009 (ip), vehicle: saline with Tween-80 101 % of control and 102 % of control | endpoint: median survival time, dose: 25.0 mg/kg/injection, schedule: Q01DX009 (ip), vehicle: saline with Tween-80 101 % of control and 102 % of control | endpoint: median survival time, dose: 50.0 mg/kg/injection, schedule: Q01DX009 (ip), vehicle: saline with Tween-80 97 % of control and 103 % of control

COc1ccc2c(O)c(-c3ccc(OC)c(OC)c3)c(=O)oc2c1
inactive: [7] 96 % of control | [8] 103 % of control | [1] 106 % of control

CC(=O)OC1CCCCC1C (stereo unspecified)
inactive: [1] 105 % of control | [9] 105 % of control | [2] 100 % of control | [10] 110 % of control | [11] 102 % of control

N=C(CN1CCCCC1)N1CCCCC1
inactive: endpoint: mean survival time, dose: 25.0 mg/kg/injection, schedule: Q04DX002 (ip), vehicle: saline 104 % of control | endpoint: mean survival time, dose: 50.0 mg/kg/injection, schedule: Q04DX002 (ip), vehicle: saline 101 % of control | endpoint: mean survival time, dose: 100.0 mg/kg/injection, schedule: Q04DX002 (ip), vehicle: saline 112 % of control

N#Cc1c(F)c(F)c(Oc2c(F)c(F)c(F)c(F)c2F)c(F)c1F
inactive: [9] 94 % of control | [10] 91 % of control

NC(=O)c1n[nH]c(C2OC(COP(=O)(O)O)C(O)C2O)n1 (stereo unspecified)
inactive: endpoint: mean survival time, dose: 12.5 mg/kg/injection, schedule: Q01DX005 (ip), vehicle: water 100 % of control | endpoint: mean survival time, dose: 25.0 mg/kg/injection, schedule: Q01DX005 (ip), vehicle: water 100 % of control | endpoint: mean survival time, dose: 50.0 mg/kg/injection, schedule: Q01DX005 (ip), vehicle: water 96 % of control | endpoint: mean survival time, dose: 100.0 mg/kg/injection, schedule: Q01DX005 (ip), vehicle: water 97 % of control | endpoint: mean survival time, dose: 200.0 mg/kg/injection, schedule: Q01DX005 (ip), vehicle: water 96 % of control

CC(C)(C)C(=O)CC(=O)C(C)(C)C
inactive: [9] 95 % of control and 94 % of control | [10] 91 % of control and 100 % of control | [11] 95 % of control

CO[C@@]12[C@@H]3N[C@@H]3CN1C1=C(C(=O)C(N3CCOCC3)=C(C)C1=O)[C@@H]2COC(N)=O
inactive: endpoint: mean survival time, dose: 1.5 mg/kg/injection, schedule: Q01DX001 (ip), vehicle: distilled water + Tween-80 118 % of control | endpoint: mean survival time, dose: 3.0 mg/kg/injection, schedule: Q01DX001 (ip), vehicle: distilled water + Tween-80 123 % of control | endpoint: mean survival time, dose: 12.0 mg/kg/injection, schedule: Q01DX001 (ip), vehicle: distilled water + Tween-80 115 % of control
